Data on eleven molecules can be found in patent US5981777A, “Recovery of taxanes from plant material” (The Regents of the University of California, priority 1997, dated 1999).

Each structure is given as a SMILES string. pIC50: −log10 of the molar value.

Assay [1] deals with taxol-specific (TA12) monoclonal antibody. Nature of the assay: indirect competitive immunoassay, cross-reactivity with TA12. Also on record: species or system mouse. As to conditions: > x = highest concentration tested (270 or 300 ng/ml), read-out: IC50 TA12 (concentration of analyte required to inhibit antibody binding to solid phase antigen by 50%). The text has this:
(§1) A preferred antibody is TA14 available from Hawaii Biotechnology Group is particularly useful for this purpose. The cross-reactivity of polyclonal anti-taxane (TA11) and taxol- (TA12), baccatin III- (TA13), or "generic taxane"-specific (TA14) monoclonal antibodies as determined by indirect competitive immunoassays is set forth in Table 1. All of these antibodies are available from Hawaii Biotechnology group.
(§2) ^a Crossreactivity is expressed as the concentration of analyte
(§3) required to inhibit antibody binding to solid phase antigen by 50%
(§4) (IC50) in the indicated competitive immunoassay. Values expressed as
(§5) > x represent the highest concentration tested (either 270 or 300 ng/ml).

Assay [2] relates to polyclonal anti-taxane (TA11) antibody. As to the kind of experiment: indirect competitive immunoassay, cross-reactivity with TA11. The conditions noted are these: > x = highest concentration tested (270 or 300 ng/ml), read-out: IC50 TA11 (concentration of analyte required to inhibit antibody binding to solid phase antigen by 50%).
Description: as §1, §2, §3, §4, §5

For assay [3], the system named is baccatin III-specific (TA13) monoclonal antibody. As to the kind of experiment: indirect competitive immunoassay, cross-reactivity with TA13. More on the design: species or system mouse. As to conditions: > x = highest concentration tested (270 or 300 ng/ml), read-out: IC50 TA13 (concentration of analyte required to inhibit antibody binding to solid phase antigen by 50%).
Description: as §1, §2, §3, §4, §5

The subject of assay [4] is "generic taxane"-specific (TA14) monoclonal antibody. Nature of the assay: indirect competitive immunoassay, cross-reactivity with TA14. More on the design: species or system mouse. As to conditions: > x = highest concentration tested (270 or 300 ng/ml), read-out: IC50 TA14 (concentration of analyte required to inhibit antibody binding to solid phase antigen by 50%).
Description: as §1, §2, §3, §4, §5

For assay [5] the test system is unchanged. As to conditions: in words; Kingston et al. J. Nat. Prod. 53:1-12 (1990); cited from earlier work.
Assay [6] relates to taxol-specific (TA12) monoclonal antibody. As to conditions: in words; cited from earlier work.
The subject of assay [7] is baccatin III-specific (TA13) monoclonal antibody. As to conditions: in words; cited from earlier work.

Consider `CC(=O)O[C@@]12CO[C@@H]1C[C@@H](O)[C@@]1(C)C(=O)[C@H](O)C3=C(C)[C@@H](O)C[C@@](O)([C@@H](OC(=O)c4ccccc4)[C@H]21)C3(C)C` [7-epi-10-deacetylbaccatin III], for which the pIC50 in assay [1] is less than 6.30; in assay [2], 7.47.

For the molecule `CC(=O)O[C@@]12CO[C@@H]1C[C@@H](O)[C@@]1(C)C(=O)[C@H](O)C3=C(C)[C@@H](OC(=O)[C@H](O)[C@@H](NC(=O)c4ccccc4)c4ccccc4)C[C@@](O)([C@@H](OC(=O)c4ccccc4)[C@H]21)C3(C)C` [7-epi-10-deacetyltaxol], the pIC50 is less than 6.48 in assay [3], 7.60 in assay [1], 8.92 in assay [2] and 7.82 in assay [4].

As to `CC(=O)O[C@H]1C(=O)[C@]2(C)[C@H](O)C[C@H]3OC[C@@]3(OC(C)=O)[C@H]2[C@H](OC(=O)c2ccccc2)[C@]2(O)C[C@H](OC(=O)[C@H](O)[C@@H](NC(=O)c3ccccc3)c3ccccc3)C(C)=C1C2(C)C` [7-epi-taxol], the pIC50 in assay [3] was less than 6.50; in assay [1], 7.10; in assay [2], 8.10; in assay [4], 7.30.

`CC(=O)O[C@@]12CO[C@@H]1C[C@H](O[C@@H]1OC[C@@H](O)[C@H](O)[C@H]1O)[C@@]1(C)C(=O)[C@H](O)C3=C(C)[C@@H](OC(=O)[C@H](O)[C@@H](NC(=O)c4ccccc4)c4ccccc4)C[C@@](O)([C@@H](OC(=O)c4ccccc4)[C@H]21)C3(C)C` [7-xylosyl-10-deacetyltaxol]: the pIC50 in assay [2] was 8.74.

Take `CC(=O)O[C@@]12CO[C@@H]1C[C@H](O)[C@@]1(C)C(=O)[C@H](O)C3=C(C)[C@@H](OC(=O)[C@H](O)[C@@H](NC(=O)c4ccccc4)c4ccccc4)C[C@@](O)([C@@H](OC(=O)c4ccccc4)[C@H]21)C3(C)C` [10-deacelyltaxol]: in assay [2], the pIC50 is 9.15.

Take `CC(=O)O[C@@]12CO[C@@H]1C[C@H](O)[C@@]1(C)C(=O)[C@H](O)C3=C(C)[C@@H](O)C[C@@](O)([C@@H](OC(=O)c4ccccc4)[C@H]21)C3(C)C` [10-deacetylbaccatin III]: the “cross-reaction with TA14” value in assay [5] is reported as “cross reacts”.

In the case of `CC(=O)O[C@H]1C(=O)[C@@]2(C)[C@H]([C@H](OC(=O)c3ccccc3)[C@]3(O)C[C@H](OC(=O)[C@H](O)[C@@H](NC(=O)c4ccccc4)c4ccccc4)C(C)=C1C3(C)C)[C@]1(OC(C)=O)CO[C@@H]1C[C@@H]2O` [Taxol ® (paclitaxel), paclitaxel], the “reactivity with TA12” value in assay [6] is “specifically reactive”. Also, in assay [2], the pIC50 was 9.30. Further, the “cross-reaction with TA14” value in assay [5] is given as “cross reacts”.

For the molecule `CC(=O)O[C@@]12CO[C@@H]1C[C@H](O)[C@@]1(C)C(=O)[C@H](O)C3=C(C)[C@@H](OC(=O)[C@H](O)[C@@H](NC(=O)OC(C)(C)C)c4ccccc4)C[C@@](O)([C@@H](OC(=O)c4ccccc4)[C@H]21)C3(C)C` [Taxotere ® (docetaxel), docetaxel], the pIC50 in assay [3] was less than 6.50; in assay [1] it was less than 6.50; in assay [4], 8.00.

On to `CC(=O)O[C@H]1C(=O)[C@@]2(C)[C@H]([C@H](OC(=O)c3ccccc3)[C@]3(O)C[C@H](O)C(C)=C1C3(C)C)[C@]1(OC(C)=O)CO[C@@H]1C[C@@H]2O` [baccatin III], for which, in assay [7], the “binding to TA13” value was “binds with equal affinity”. Also, the “cross-reaction with TA14” value in assay [5] was “cross reacts”.

As to `CC(=O)O[C@H]1C(=O)[C@]2(C)[C@H](O)C[C@H]3OC[C@@]3(OC(C)=O)[C@H]2[C@H](OC(=O)c2ccccc2)[C@]2(O)C[C@H](O)C(C)=C1C2(C)C` [baccatin V], in assay [7], the “binding to TA13” value is given as “binds with equal affinity”.

For `C/C=C(\C)C(=O)N[C@@H](c1ccccc1)[C@@H](O)C(=O)O[C@H]1C[C@@]2(O)[C@@H](OC(=O)c3ccccc3)[C@@H]3[C@]4(OC(C)=O)CO[C@@H]4C[C@H](O)[C@@]3(C)C(=O)[C@H](OC(C)=O)C(=C1C)C2(C)C` [cephalomannine], the pIC50 in assay [2] is 9.00. In addition, the “cross-reaction with TA14” value in assay [5] is “cross reacts”.
